Test results as given in patent US8455495B2, “Pyridazino-pyridinone compounds and methods of use” (Amgen Inc., priority 2008, dated 2013).
Read-outs that look alike come from different tables or passages of the source.

Legend:
[1] = tested on: TNF-α induced IL-8 in 50% human whole blood; test: Inhibition of TNF-α induced IL-8 in 50% human whole blood; format: cell-based
Description: Inhibition of TNF-α Induced IL-8 in 50% Human Whole Blood
Test compounds were evaluated in vitro for the ability to inhibit the production of secreted IL-8 by whole blood activated with TNF-α. Fresh human whole blood was obtained from healthy, non-medicated volunteers in sodium heparin tubes.
Compound Dilution—Assay Procedure
Test compounds are serially diluted 1:3 in DMSO and then diluted 1:250 into R10 (RPMI 1640, 10% human serum AB, 1× pen/strep/glutamine) to the 4× working concentration to be used in the assay. 100 ul heparinized whole blood is plated into wells of 96 well flat bottom plates. 50 ul of either 4× compound or DMSO control (Final DMSO concentration is 0.1%) are added to the appropriate wells. Plates are incubated for 1 hour at 37 degrees Celsius. 50 ul of 4×TNF-α (4 nM TNF-α, for a final concentration of 1 nM) or control (media alone) is added to the appropriate wells (Total volume=200 ul). Plates are incubated overnight (16-18 hours). 100 ul of supernatant is collected and stored in 96-well round bottom polypropylene plates at −80 degrees Celsius or assayed immediately for IL-8.
Cytokines are measured on antibody (Ab) sandwich ECL based 96-well detection plates. 20 ul of supernatant are added to plate and plate is sealed and shaken at RT for 1 hour. 130 ul of detection Ab cocktail is added and plates are sealed and shaken for 1 hour in the dark at RT. Plates are read on MSD Sector HTS instrument. Data are analyzed and IC50 values generated using Activity Base and X1-fit programs.

recombinant human p38α = recombinant human p38α (Homo sapiens, UniProt Q16539); test: Purified and activated recombinant human p38α HTRF assay; format: biochemical; settings: 1 nM p38α, 50 μM ATP, GST-ATF2 substrate, read-out: p38a IC50
Description: Purified and Activated Recombinant Human p38α Assay Kinase Reaction Buffer: […] HTRF Detection Buffer: […] Serial Dilution of Compounds: […] Columns 6 and 12 (HI controls and LO controls respectively) in the drug plate were reserved as controls and contained only DMSO. Kinase Reaction: […] See table below for actual concentrations. In the absence of substrate, the background was measured as LO control. […] Assay Reagent Concentrations: […] HTRF Detection: […] After 60 minutes incubation at room temperature, the assay plate was read in a Discovery Plate Reader. The wells were excited with coherent 320 nm light and the ratio of delayed ([…] post excitation) emissions at […] (native europium fluorescence) and 665 nm (europium fluorescence transferred to allophycocyanin-an index of substrate phosphorylation) was determined (Park et al, 1999). Data Analysis: […] Data (consisting of POC and inhibitor concentration in μM) was fitted to a 4-parameter equation ([…]))), where A is the minimum y (POC) value, B is the maximum y (POC), C is the x (compound concentration) at the point of inflection and D is the slope factor, using a Levenburg-Marquardt non-linear regression algorithm. The inhibition constant (Ki) of the inhibitor was estimated from the IC50 (compound concentration at the point of inflection C) using the Cheng-Prussof equation: […] All results were expressed as the mean±the standard error of the mean. Data acquisition and non-linear regression algorithms were performed using Activity Base v5.2 and XL-fit software v4.1 respectively. All data was archived using Activity Base v5.2 software.

[2] = tested on: production of IL-1β, IL-6, and TNF-α by PBMC activated with LPS; test: Lipopolysaccharide-activated PBMC cytokine production assay; format: cell-based; settings: Homo sapiens, LPS 100 ng/mL, 18 hours, read-out: IC50 in PBMC cytokine production assay
Description: Lipopolysaccharide-Activated Pbmc Cytokine Production Assay
Test compounds were evaluated in vitro for the ability to inhibit the production of IL-1β, IL-6, and TNF-α by PBMC activated with bacterial lipopolysaccharide (LPS). Fresh leukocytes were obtained from a local blood bank, and peripheral blood mononuclear cells (PBMCs) were isolated by density gradient centrifugation on Ficol-Paque Plus (Pharmacia).
Preparation of Test Compound Stock Solutions
All reagents were prepared in RPMI 1640+10% v/v human AB serum+1× Pens/Strep/Glu (assay medium). Test compounds were dissolved in 100% DMSO and serially diluted in 96-well polypropylene round bottom micro titer plates (drug plate). Serial dilutions were then diluted 1:250 into assay medium to a 4× working concentration. Compound serial dilutions were half-log, 10 point titrations with a final starting concentration of 1 μM.
Treatment of Cells with Test Compounds and Activation with Lipopolysaccharide
LPS was prepared to a 4× concentration in assay medium. 100 μl of PBMC (1×10^6 cells/ml) were plated in a 96-well polystyrene flat bottom micro titer tissue culture plate and incubated with 50 μl of 4× compound serial dilution for 1 hour at 37° C., 5% CO2 in a tissue culture incubator. 50 μl 4×LPS or control was added and the plates were incubated at 37° C., 5% CO2 in a tissue culture incubator for 18 hours. The final DMSO concentration was 0.1%. The total volume was 200 μL. The final LPS concentration was 100 ng/mL. After 18 hours culture supernatants were removed and IL-1β, IL-6, and TNF-α presence in the supernatants was quantified using MSD ECL based technology.
20 μL of culture supernatant were added to MSD plates, and incubated for one hour at room temperature. 20 μL of detection antibody diluted in antibody diluent (1 μg/mL), and 110 μL of 2× Read Buffer P was added, and incubated for one hour at RT. Electrochemiluminescence was measured using the SECTOR HTS Imager (MSD, Gaithersburg, Md.).
Compound IC50 values were calculated as follows: The proportion of cytokine production in the presence of compound compared to the cytokine production in the presence of the DMSO vehicle alone (Hi control) was calculated using the formula: Percent Control (POC)=(compound−average Lo)/(average Hi−average Lo)*100.

[3] = tested on: TNF-α production by LPS-activated THP1 cells; test: Lipopolysaccharide-activated THP1 cell TNF production assay; format: cell-based; settings: Homo sapiens, THP-1; THP1 cells, LPS, 3 hours; read-out: IC50 in THP-1 cellular TNF production assay
Description: Lipopolysaccharide-Activated THP1 Cell TNF Production Assay
THP1 cells were resuspended in fresh THP1 media (RPMI 1640, 10% heat-inactivated FBS, 1×PGS, 1×NEAA, plus 30 μM βME) at a concentration of 1.5×10^6 cells per mL. One hundred microliters of cells per well were plated in a polystyrene 96-well tissue culture plate. 1.5 micrograms per mL of bacterial LPS was prepared in THP1 media and transferred to the first 11 columns of a 96-well polypropylene plate. Column 12 contained only THP1 media for the LO control. Compounds were dissolved in 100% DMSO and serially diluted 3 fold in a polypropylene 96-well microtiter plate (drug plate). Columns 6 and 12 were reserved as controls (HI controls and LO controls respectively) and contained only DMSO. 10 μL of LPS followed by one microliter of inhibitor compound from the drug plate was transferred to the cell plate. The treated cells were induced to synthesize and secrete TNF-α in a 37° C. humidified incubator with 5% CO2 for 3 hours. Fifty microliters of conditioned media was transferred to a 96-well MULTI-ARRAY™ 96-well small spot plate—custom coated with MAB610 containing 100 μL of 2× Read Buffer P supplemented with 0.34 nM AF210NA polyclonal Ab labeled with ruthenium (MSD—Sulfo-TAG™—NHS ester). After an overnight incubation at room temperature with shaking, the reaction was read on the Sector Imager™ 6000. […] The amount of secreted TNF-α in the presence of test compounds compared with that in the presence of DMSO vehicle alone (HI control) was calculated using the formula: % control (POC)=(cpd−average LO)/(average HI−averageLO)*100. Data (consisting of POC and inhibitor concentration in μM) was fitted to a 4-parameter equation (y=A+((B−A)/(1+((x/C)^D))), where A is the minimum y (POC) value, B is the maximum y (POC), C is the x (cpd concentration) at the point of inflection and D is the slope factor) using a Levenburg-Marquardt non-linear regression algorithm.

[4] = TNF-α (1 nM) induced IL-8, 50% human whole blood, 16-18 h, read-out: WB TNF/IL8 IC50

recombinant human p38α, sequence (Q16539 whole entry): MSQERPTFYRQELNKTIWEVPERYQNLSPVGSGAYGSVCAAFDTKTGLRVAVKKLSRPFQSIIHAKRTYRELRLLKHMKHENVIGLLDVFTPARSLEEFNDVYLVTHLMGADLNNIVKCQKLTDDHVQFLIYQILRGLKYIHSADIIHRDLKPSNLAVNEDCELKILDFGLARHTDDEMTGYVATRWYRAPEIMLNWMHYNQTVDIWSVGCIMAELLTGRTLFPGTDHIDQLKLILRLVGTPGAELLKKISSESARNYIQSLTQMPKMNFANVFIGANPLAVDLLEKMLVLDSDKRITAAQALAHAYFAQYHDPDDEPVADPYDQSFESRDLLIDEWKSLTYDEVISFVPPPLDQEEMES

IC50 (recombinant human p38α) [nM] | IC50 [3] [nM] | IC50 [1, 4] [nM] | SMILES | IC50 ([1]; read-out: WB TNF/IL8 IC50, TNF-α (1 nM) induced IL-8, 50% human whole blood, 16-18 h) [nM] | IC50 [2] [nM]
7.5 | ≤ 1000 | 4.1 | Cc1ccc(C(=O)Nc2ccnn2C)cc1-c1cc2cnnc(-c3ccc(F)cc3F)c2n(C)c1=O [Example 15, 3-(8-(2,4-difluorophenyl)-1-methyl-2-oxo-1,2-dihydropyrido[2,3-d]pyridazin-3-yl)-4-methyl-N-(1-methyl-1H-pyrazol-5-yl)benzamide] |  | ≤ 1000
1.7 | ≤ 1000 | 2.2 | Cc1ccc(C(=O)NC2CC2)cc1-c1cc2cnnc(-c3cc(F)ccc3Cl)c2n(C)c1=O [Example 18, 3-(8-(2-chloro-5-fluorophenyl)-1-methyl-2-oxo-1,2-dihydropyrido[2,3-d]pyridazin-3-yl)-N-cyclopropyl-4-methylbenzamide] |  | ≤ 1000
4.1 | ≤ 1000 | 15.6 | Cc1ccc(C(=O)NC2(C)CC2)cc1-c1cc2cnnc(-c3ccc(F)cc3Cl)c2n(C)c1=O [Example 20, 3-(8-(2-chloro-4-fluorophenyl)-1-methyl-2-oxo-1,2-dihydropyrido[2,3-d]pyridazin-3-yl)-4-methyl-N-(1-methylcyclopropyl)benzamide] |  | ≤ 1000
3 | ≤ 1000 |  | Cc1ccc(C(=O)NC2(C)CC2)cc1-c1cc2cnnc(-c3ccc(F)cc3F)c2n(C)c1=O [Example 29, 3-(8-(2,4-difluorophenyl)-1-methyl-2-oxo-1,2-dihydropyrido[2,3-d]pyridazin-3-yl)-4-methyl-N-(1-methylcyclopropyl)benzamide] |  | ≤ 1000
2.7 |  | 30 | CNC(=O)c1ccc(C)c(-c2cc3cnnc(-c4ccc(F)cc4F)c3n(C)c2=O)c1 [Example 31, 3-(8-(2,4-difluorophenyl)-1-methyl-2-oxo-1,2-dihydropyrido[2,3-d]pyridazin-3-yl)-N,4-dimethylbenzamide] |  | 
1.2 |  | 7.3 | Cc1ccc(C(=O)Nc2nccs2)cc1-c1cc2cnnc(-c3ccc(F)cc3F)c2n(C)c1=O [Example 32, 3-(8-(2,4-difluorophenyl)-1-methyl-2-oxo-1,2-dihydropyrido[2,3-d]pyridazin-3-yl)-4-methyl-N-1,3-thiazol-2-ylbenzamide] |  | 
 |  | 1.7 | Cc1ccc(C(=O)Nc2ccon2)cc1-c1cc2cnnc(-c3ccc(F)cc3F)c2n(C)c1=O [Example 33, 3-(8-(2,4-difluorophenyl)-1-methyl-2-oxo-1,2-dihydropyrido[2,3-d]pyridazin-3-yl)-N-3-isoxazolyl-4-methylbenzamide] |  | 

The next lines start with the molecule.

SMILES | IC50 (recombinant human p38α) [nM] | IC50 [3] [nM] | IC50 [1, 4] [nM] | IC50 ([1]; read-out: WB TNF/IL8 IC50, TNF-α (1 nM) induced IL-8, 50% human whole blood, 16-18 h) [nM] | IC50 [2] [nM]
Cn1c(=O)c(-c2cc(C(=O)O)ccc2Cl)cc2cnnc(-c3ccc(F)cc3F)c21 [Example 4, 4-chloro-3-(8-(2,4-difluorophenyl)-1-methyl-2-oxo-1,2-dihydropyrido[3,2-d]pyridazin-3-yl)benzoic acid] | > 1000 |  |  | > 2500 | 
Cc1ccc(C(=O)Nc2ccon2)cc1-c1cc2cnnc(-c3ccccc3Cl)c2n(C)c1=O [Example 25, 3-(8-(2-chlorophenyl)-1-methyl-2-oxo-1,2-dihydropyrido[2,3-d]pyridazin-3-yl)-N-3-isoxazolyl-4-methylbenzamide] | 0.9 | ≤ 1000 |  |  | ≤ 1000
Cc1ccc(C(=O)NC2CC2)cc1-c1cc2cnnc(-c3ccc(S(C)(=O)=O)cc3C)c2n(C)c1=O [Example 26, N-cyclopropyl-4-methyl-3-(1-methyl-8-(2-methyl-4-(methylsulfonyl)phenyl)-2-oxo-1,2-dihydropyrido[2,3-d]pyridazin-3-yl)benzamide] | 3.3 |  | 10 |  | 
Cc1cc(S(C)(=O)=O)ccc1-c1nncc2cc(-c3cc(C(=O)NC4CC4)cc(F)c3C)c(=O)n(C)c12 [Example 27, N-cyclopropyl-3-fluoro-4-methyl-5-(1-methyl-8-(2-methyl-4-(methylsulfonyl)phenyl)-2-oxo-1,2-dihydropyrido[2,3-d]pyridazin-3-yl)benzamide] | 2.5 |  | 3.9 |  | 
CCn1c(=O)c(-c2cc(C(=O)NC3CC3)ccc2C)cc2cnnc(-c3ccccc3Cl)c21 [Example 28, 3-(8-(2-chlorophenyl)-1-ethyl-2-oxo-1,2-dihydropyrido[2,3-d]pyridazin-3-yl)-N-cyclopropyl-4-methylbenzamide] | 1 |  | 1 |  | 
Cc1cnc(C(=O)NC2CC2)cc1-c1cc2cnnc(-c3ccc(F)cc3F)c2n(C)c1=O [Example 30, N-cyclopropyl-4-(8-(2,4-difluorophenyl)-1-methyl-2-oxo-1,2-dihydropyrido[2,3-d]pyridazin-3-yl)-5-methyl-2-pyridinecarboxamide] | 14 |  | 38 |  | 
